In brackets after ≈: the same amount, converted by molar mass. Counter-ions that a name gives are not always drawn. Like-named read-outs stand apart in the source and are kept apart here.
Key:
[1] = test system: women; conditions: cited from earlier work
[2] = cited from earlier work
[3] = test system: rat hepatocytes; conditions: cited from earlier work
[4] = test system: mammalian cell mutation; conditions: cited from earlier work
[5] = test system: Chinese hamster ovary cells; conditions: cited from earlier work
[6] = test system: Chinese hamsters; conditions: cited from earlier work
[7] = test system: mice; conditions: cited from earlier work
[8] = test system: bacterial mutagenesis; conditions: with and without metabolic activation; cited from earlier work
[9] = cited from earlier work; remark: listed apart in the source
[10] = cited from earlier work; remark: listed apart in the source
[11] = test system: mice; conditions: cited from earlier work; remark: listed apart in the source
[12] = test system: rats; conditions: female rats given 279 mg/kg, 2 years; cited from earlier work
[13] = test system: uterus; conditions: clinical studies; cited from earlier work
[14] = test system: women; conditions: women taking the drug, MORE trial; cited from earlier work
[15] = test system: postmenopausal women; conditions: cited from earlier work
[16] = cited from earlier work; remark: listed apart in the source
[17] = in vitro; conditions: human, topical or ocular
[18] = oral, cited from earlier work

For estrogen, the “VTE rates compared to placebo group” value ([1]; estrogen transdermally) is given as “no significant difference” and the “risk of VTE compared to a placebo group” value ([1]; oral estrogen, 95 percent CI 1.8-6.8) is given as 3.5 fold.

For O=C(c1ccc(OCCN2CCCCC2)cc1)c1c(-c2ccc(O)cc2)sc2cc(O)ccc12 [Raloxifene.HCl, raloxifene hydrochloride], the “increase in AUC with increasing doses” value ([2]; doses ranging from 30 to 150 mg) is listed as “slightly less than a proportional increase”, the “genotoxicity, unscheduled DNA synthesis assay” value [3] is listed as “not genotoxic” and the “genotoxicity, mouse lymphoma assay” value [4] is listed as “not genotoxic”. For the same molecule, the “genotoxicity, chromosomal aberration assay” value [5] was “not genotoxic”, the “genotoxicity, in vivo sister chromatid exchange assay” value [6] was “not genotoxic” and the “genotoxicity, in vivo micronucleus test” value [7] was “not genotoxic”. The “genotoxicity, Ames test” value [8] was “not genotoxic”.

For O=C(c1ccc(OCCN2CCCCC2)cc1)c1c(-c2ccc(O)cc2)sc2cc(O)ccc12 [Raloxifene], the plasma elimination half-life ([2]; after oral dosing) is given as 27.7 h, the clearance rate ([2]; following intravenous administration) is given as “approximating hepatic blood flow” and the water solubility ([9]; H2O) is given as 0.25 µg/mL (≈ 0.528 µM). The “log P” value [10] was 5.749, the “incidence of ovarian tumors” value ([11]; female mice given 9 to 242 mg/kg, 21 months) was “increased incidence” and the “incidence of prostatic leiomyoblastoma” value ([11]; male mice given 210 mg/kg) was “increased incidence”. The “incidence of testicular interstitial cell tumors, prostatic adenomas, and adenocarcinomas” value ([11]; male mice given 41 or 210 mg/kg) was “increased incidence”, the “incidence in ovarian tumors of granulosa/theca cell origin” value [12] was “increased incidence” and the uterotrophic activity [13] was “does not have uterotrophic activity”. For the same molecule, the “incidence of breast cancer compared with controls” value [14] was “lower incidence”, the “fewer uterine cancers than those assigned to tamoxifen” value ([15]; STAR trial) was 36% and the “reduction of risk for invasive breast cancer” value ([15]; postmenopausal women, STAR trial interim analysis) was “approximately 50%”. The “increased incidence of VTE” value ([16]; oral) was 2-4 times, the plasma antithrombin levels ([16]; raloxifene use) was “significant reduction” and the tPA levels ([16]; raloxifene use) was “significant reduction”. The bioavailability at 3 wt % [17] was about 1%, the absolute bioavailability [18] was 2% and the absolute bioavailability ([18]; listed as raloxifene) was “approximately 2%”.

For O=C1CC[C@@]2(O)[C@H]3Cc4ccc(O)c5c4[C@@]2(CCN3CC2CC2)[C@H]1O5 [Naltrexone], the “solubility in water” value ([9]; water) is given as “water soluble”.
